From patent publication US20250066289A1, “BIGUANIDE DERIVATIVE OF IBUPROFEN AND PROCESS OF PREPARATION THEREOF” (BVDU's Poona College of Pharmacy, priority 2023, published 2025)

What was measured:
[1] = system: CAR-induced paw edema; assay: CAR-induced paw edema anti-inflammatory study; type: in vivo, Male Wistar rats; settings: for water volume displacement digital plethysmometer (paw volume): 5 mg/kg i.p., Mean ± SD, n=4
Procedure: (§1) Male Wistar rats weighing between 200 and 250 g were used for the studies. The animals were kept in animal cages with free access to standard pellet food and water at a temperature of 23±2° C., a 12-hour cycle of darkness and light, and a relative humidity of roughly 45 to 65%. The Institutional Animal Ethics Committee (IAEC) authorized the protocol, and the animal experiments were carried out in accordance with it as well as the Indian regulations established by the Committee for the Purpose of Control and Supervision of Experimental Animals (CPCSEA), New Delhi.
In the second experiment, the anti-inflammatory effect of Biguanide of Ibuprofen in comparison Ibuprofen was assessed by CAR-induced paw edema. The experimental groups were designed as follows (n=4 per group): • Group 1. Control group: 100 μl saline (i.d.)+saline (i.p.), • Group 2. CAR group: 100 μl CAR (i.d.)+saline (i.p.), • Group 3. Ibuprofen 5 mg/kg group: 100 μl CAR (i.d.)+5 mg/kg Ibuprofen (i.p.), • Group 4. Biguanide of Ibuprofen 5 mg/kg group: 100 μl CAR (i.d.)+5 mg/kg Biguanide of Ibuprofen (i.p.),
Carrageenan (100 μl) was injected by i.d. route per rat into the right hind paw. The rats were injected with i.p. Ibuprofen (5 mg/kg), and Biguanide of Ibuprofen (5 mg/kg) immediately after CAR injection. Saline was given to the control group. The paw volume was measured plethysmographically at 0 min, 30 min, 60 min, 90 min, 120 min, 180 min and 240 min. The 0th min reading was considered as the initial paw size of the rats. The change in the paw volume in the test groups was compared with the untreated control groups. The reduction in paw volume (mL) with the help of water plethysmometer was recorded.

[2] = system: STZ induced diabetic rats; assay: STZ induced diabetic study, fasting blood glucose; type: in vivo, Male Wistar rats; settings: for Fasting Blood Glucose (FBG): Mean ± SD, n=4
Procedure: as §1
An intraperitoneal injection of streptozotocin (STZ, 55 mg/kg of body weight) was used to cause diabetes. STZ was dissolved in 0.1 mol/L citrate buffer, pH 4.5, and injected into the peritoneal cavity. The fasting blood glucose concentration (FBG) was used for diagnosis of diabetes. Animals having blood glucose level greater than 16.7 mmol/L after 24 hours were deemed diabetic. These animals were further selected for the study.
The animals (n=4) were divided into four groups. • Group 1: treated with vehicle (distilled water) vehicle control; • Group 2: treated with vehicle (drinking water and STZ) diabetic control; • Group 3: treated with metformin (10 mg/kg body weight/day in drinking water) diabetic test; and • Group 4: treated with Biguanide of Ibuprofen (10 mg/kg body weight/day in drinking water) diabetic test.
The treatment with metformin and Biguanide of Ibuprofen was given for 14 days. And at the end of treatment fasting blood glucose estimation was performed.

[3] = Day 7, 10 mg/kg body weight/day in drinking water
[4] = Day 14, 10 mg/kg body weight/day in drinking water

SMILES	water volume displacement digital plethysmometer (paw volume) ([1]; 0 min (initial paw size)) [mL]	water volume displacement digital plethysmometer (paw volume) ([1]; 30 min after CAR) [mL]	water volume displacement digital plethysmometer (paw volume) ([1]; 60 min after CAR) [mL]	water volume displacement digital plethysmometer (paw volume) ([1]; 90 min after CAR) [mL]	water volume displacement digital plethysmometer (paw volume) ([1]; 120 min after CAR) [mL]	water volume displacement digital plethysmometer (paw volume) ([1]; 180 min after CAR) [mL]	water volume displacement digital plethysmometer (paw volume) ([1]; 240 min after CAR) [mL]	Paw volume compared to Ibuprofen (in words) ([1]; CAR-induced paw edema, both 5 mg/kg i.p.)	Effect on FBG levels in diabetic rats (in words) ([2]; 10 mg/kg/day, 14 days)	Fasting Blood Glucose (FBG) [2, 3] [mmol/L]	Fasting Blood Glucose (FBG) [2, 4] [mmol/L]	Reduction in FBG compared to metformin (in words) ([2]; both 10 mg/kg/day, 14 days)
CC(C)Cc1ccc(C(C)C(=O)NNC(=N)NC(=N)N)cc1 (centres unmarked) [Biguanide of Ibuprofen, N-carbamimidoyl-2-(2-(4-isobutylphenyl)propanoyl) hydrazine-1-carboximidamide]	0.692 ± 0.012	0.853 ± 0.016	0.940 ± 0.013	0.875 ± 0.021	0.815 ± 0.015	0.740 ± 0.018	0.710 ± 0.011	significantly decreased paw volume, when compared to that of the Ibuprofen	significant lowering of FBG levels	22.93 ± 0.97	6.38 ± 0.86	more marked reduction in FBG when compared to metformin
CN(C)C(=N)N=C(N)N [metformin, 3-(diaminomethylidene)-1,1-dimethylguanidine, reference compound]	–	–	–	–	–	–	–	–	–	22.77 ± 1.12	10.27 ± 1.21	–
